Measurements reported in US10143681B2, “Factor XIa inhibitors” (MERCK SHARP & DOHME CORP., priority 2016, dated 2018).
pIC50: −log10 of the molar value.

Tests used:
Human plasma kallikrein = Human plasma kallikrein (Homo sapiens (Human), UniProt P03952); assay: Kallikrein Assay; type: biochemical; details: purified Human plasma kallikrein 0.5 nM, substrate Acetyl-K-P-R-AFC; read-out: P. KLK IC50
Method in brief: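 Purified human plasma kallikrein (0.5 nM final) with Acetyl-K-P-R-AFC substrate ([…]) in pH 7.4 HEPES/NaCl/CaCl2/PEG buffer, room temperature or 37 °C; fluorescence rise read at 405/510 nm under linear conditions after enzyme–inhibitor equilibration. IC50 from four-parameter logistic fit; Ki via Cheng–Prusoff.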

[1] = tested on: Human plasma (intrinsic coagulation cascade); assay: Activated Partial Thromboplastin Time (aPTT) Assay; details: concentration that causes a 50% (1.5×) increase of clot time over vehicle
Method in brief: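 Inhibitors spiked into pooled citrated normal-donor human plasma (aPTT 28-40 seconds), run on automated coagulation analyzer: ellagic acid activation of Factor XII, then clot time after recalcification. Reported as concentration giving 50% (1.5×) prolongation over vehicle clot time.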

[2] = Rat Pharmacokinetic Screening IV/PO; type: in vivo; details: male; for clearance: plasma clearance, IV administration; for MRT / bioavailability: plasma; for MRT: mean residence time; for bioavailability: oral bioavailability, oral vs. IV dosing
Experimental: Plasma pharmacokinetic parameters for clearance (Cl), volume of distribution, mean residence time (MRT) and oral bioavailability (% F) were determined in rats from oral administration and IV administration studies. 4 male rats, typically weighing 225-260 gram, were fasted overnight prior to dosing. Compounds were prepared for oral and IV dosing by addition to a vehicle, depending on the dose used. For a typical preparation, 1 mg per mL (IV) or 1.5 mg per mL (oral) of test compound was added to vehicle comprised of 20% dimethyl sulfoxide (DMSO), 60% polyethylene glycol 400 (PEG400) and 20% water. IV formulation was administered to 2 rats via pre-cannulated jugular vein, and oral dosing was administered to 2 rats via oral gavage. Blood was collected by pre-cannulated artery, typically at predose, 2, 8, 15, 30 min, 1, 2, 4, 6, and 8 hr postdose for IV, and at predose, 15, 30 min, 1, 2, 4, 6, 8 hr for oral dosing. Samples were collected in K2EDTA tubes, stored on ice, and centrifuged. Plasma was transferred to a micro titer plate and stored at −70° C. until analysis. Plasma samples were extracted using protein precipitation and analyzed by liquid chromatography separation followed by mass spec detection (LC-MS/MS), using a standard curve for each compound. Plasma pharmacokinetic parameters were calculated for IV and oral dosing data by non-compartmental methods. Oral bioavailability was determined as the ratio of the dose-normalized plasma area under the curve (AUC) following oral dosing vs. IV dosing.

human Factor XIa = human Factor XIa (Homo sapiens (Human), UniProt P03951); assay: Factor XIa Assay; type: biochemical; details: human Factor XIa 0.04 nM, 30 min pre-incubation at 25° C., substrate GPR-AFC; read-out: FXIa IC50
Method in brief: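 IC50 values were obtained from four-parameter log(inhibitor)-response fits of % inhibition, then converted to Ki using Cheng-Prusoff. GPR-AFC hydrolysis was read at 400/505 nm after 60 min at 25 °C.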

Human plasma kallikrein, sequence (P03952 391-638): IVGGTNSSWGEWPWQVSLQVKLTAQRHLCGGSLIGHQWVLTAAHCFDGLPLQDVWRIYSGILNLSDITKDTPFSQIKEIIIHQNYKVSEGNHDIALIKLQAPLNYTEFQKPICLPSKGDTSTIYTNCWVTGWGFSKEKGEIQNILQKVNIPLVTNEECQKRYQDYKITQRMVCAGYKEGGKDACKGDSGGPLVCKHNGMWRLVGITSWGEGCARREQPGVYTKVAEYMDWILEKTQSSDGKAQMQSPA
Human plasma kallikrein, sequence (P03952 20-390 partner): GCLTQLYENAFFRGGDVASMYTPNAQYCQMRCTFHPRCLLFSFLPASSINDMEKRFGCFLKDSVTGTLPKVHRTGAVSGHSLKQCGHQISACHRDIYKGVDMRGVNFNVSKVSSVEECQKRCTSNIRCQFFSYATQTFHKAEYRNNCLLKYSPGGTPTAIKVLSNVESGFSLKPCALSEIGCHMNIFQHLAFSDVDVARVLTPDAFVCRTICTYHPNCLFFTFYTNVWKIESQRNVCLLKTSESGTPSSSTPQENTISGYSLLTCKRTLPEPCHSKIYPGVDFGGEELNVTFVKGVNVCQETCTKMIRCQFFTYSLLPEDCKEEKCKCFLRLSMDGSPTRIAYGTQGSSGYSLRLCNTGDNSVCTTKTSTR
human Factor XIa, sequence (P03951 388-625): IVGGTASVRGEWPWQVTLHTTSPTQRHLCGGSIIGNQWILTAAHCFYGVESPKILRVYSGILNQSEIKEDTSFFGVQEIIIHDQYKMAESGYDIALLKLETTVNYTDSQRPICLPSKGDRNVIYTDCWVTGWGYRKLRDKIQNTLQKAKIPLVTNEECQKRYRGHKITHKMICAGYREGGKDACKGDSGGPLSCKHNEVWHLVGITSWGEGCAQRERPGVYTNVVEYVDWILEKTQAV
human Factor XIa, sequence (P03951 19-387 partner): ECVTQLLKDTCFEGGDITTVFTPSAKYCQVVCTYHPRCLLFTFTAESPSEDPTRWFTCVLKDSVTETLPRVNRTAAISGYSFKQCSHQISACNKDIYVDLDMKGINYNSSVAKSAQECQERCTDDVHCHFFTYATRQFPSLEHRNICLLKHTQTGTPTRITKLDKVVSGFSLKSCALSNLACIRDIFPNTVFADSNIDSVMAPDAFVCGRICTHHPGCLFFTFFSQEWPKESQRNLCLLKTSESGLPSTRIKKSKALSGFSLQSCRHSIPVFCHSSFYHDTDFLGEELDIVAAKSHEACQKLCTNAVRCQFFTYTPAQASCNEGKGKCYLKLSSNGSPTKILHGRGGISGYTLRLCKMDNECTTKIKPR

Structure (SMILES) | pIC50 (Human plasma kallikrein) | aPTT (1.5x) [1] [µM] | clearance [2] [mL/min/kg] | MRT [2] [h] | bioavailability [2] [%] | pIC50 (human Factor XIa)
O=C(O)c1ccc(NC(=O)C(CC2CC2(F)F)c2ccc(-c3c(C(F)F)ccc(Cl)c3F)c[n+]2[O-])cc1 (single isomer, unassigned) [Example 76, 2-(1-((4-carboxyphenyl)amino)-3-(2,2-difluorocyclopropyl)-1-oxopropan-2-yl)-5-(3-chloro-6-(difluoromethyl)-2-fluorophenyl)pyridine 1-oxide] | 7.84 | 0.72 | 12.1 | 2.3 | 70 | 
O=C(O)c1ccc(NC(=O)[C@H](CC2CC2)c2ccc(-c3c(OC(F)F)ccc(Cl)c3F)c[n+]2[O-])cc1 (single isomer, unassigned) [Example 2] | 7.10 | 1.16 | 5 | 2.5 | 56 | 
O=C(O)c1ccc(NC(=O)[C@H](CC2CCC2)c2ccc(-c3c(C(F)F)ccc(Cl)c3F)c[n+]2[O-])cc1 (mixture of isomers) [Example 4, (S)- and (R)-2-(1-((4-Carboxyphenyl)amino)-3-cyclobutyl-1-oxopropan-2-yl)-5-(3-chloro-6-(difluoromethyl)-2-fluorophenyl)pyridine 1-oxide] | 8.33 |  | 5.1 | 2.5 | 34 | 9.44
O=C(O)c1ccc(NC(=O)C(CC2CC2)c2ccc(-c3cc(Cl)ccc3C(F)(F)F)c[n+]2[O-])cc1 (single isomer, unassigned) [Example 25, (R)- or (S)-2-(1-((4-carboxyphenyl)amino)-3-cyclopropyl-1-oxopropan-2-yl)-5-(5-chloro-2-(trifluoromethyl)phenyl)pyridine 1-oxide] | 6.12 | 10.28 |  |  |  | 7.80
O=C(O)c1ccc(NC(=O)C(CC2CC2F)c2ccc(-c3c(C(F)F)ccc(Cl)c3F)c[n+]2[O-])cc1 (single isomer, unassigned) [Example 93, 2-(1-((4-carboxyphenyl)amino)-3-(2-fluorocyclopropyl)-1-oxopropan-2-yl)-5-(3-chloro-6-(difluoromethyl)-2-fluorophenyl)pyridine-1-oxide] | 7.55 | 0.8 |  |  |  | 8.48
C[C@H]1C[C@@H]1C[C@@H](C(=O)Nc1ccc(C(=O)O)cc1)c1ccc(-c2c(OC(F)F)ccc(Cl)c2F)c[n+]1[O-] (single isomer, unassigned) [Example 55] |  | 0.53 | 4.3 | 2.6 | 63 | 9.42
CC1CC(CC(C(=O)Nc2ccc(C(=O)O)cc2)c2ccc(-c3c(C(F)(F)F)ccc(Cl)c3F)c[n+]2[O-])C1 (single isomer, unassigned) [Example 74, 2-(1-((4-carboxyphenyl)amino)-3-(3-methylcyclobutyl)-1-oxopropan-2-yl)-5-(3-chloro-2-fluoro-6-(trifluoromethyl)phenyl) pyridine 1-oxide] | 7.72 | 2.77 |  |  |  | 8.89
N#CC1(CC(C(=O)Nc2ccc(C(=O)O)cc2)c2ccc(-c3c(C(F)F)ccc(Cl)c3F)c[n+]2[O-])CC1 (racemic) [Example 31, 2-(1-((4-carboxyphenyl)amino)-3-(1-cyanocyclopropyl)-1-oxopropan-2-yl)-5-(3-chloro-6-(difluoromethyl)-2-fluorophenyl)pyridine 1-oxide] | 7.51 | 0.88 |  |  |  | 8.52
CC1(C)CC1CC(C(=O)Nc1ccc(C(=O)O)cc1)c1ccc(-c2c(OC(F)F)ccc(Cl)c2F)c[n+]1[O-] (single isomer, unassigned) [Example 112, 2-(1-((4-carboxyphenyl)amino)-3-(2,2-dimethylcyclopropyl)-1-oxopropan-2-yl)-5-(3-chloro-6-(difluoromethoxy)-2-fluorophenyl)pyridine 1-oxide] | 7.67 | 2.21 |  |  |  | 9.40
O=C(O)c1ccc(NC(=O)C(C[C@H]2CC[C@H](O)CC2)c2ccc(-c3c(C(F)F)ccc(Cl)c3F)c[n+]2[O-])cc1 (single isomer, unassigned) [Example 37, (R)- or (S)-2-(1-((4-carboxyphenyl)amino)-3-((1r,4r)-4-hydroxycyclohexyl)-1-oxopropan-2-yl)-5-(3-chloro-6-(difluoromethyl)-2-fluorophenyl)pyridine 1-oxide] | 8.24 | 0.4 |  |  |  | 9.48
O=C(O)c1ccc(NC(=O)[C@H](CC2CC2)c2ccc(-c3c(C(F)F)ccc(Cl)c3F)c[n+]2[O-])cc1 (mixture of isomers) [Example 23, (S)- and (R)-2-(1-((4-carboxyphenyl)amino)-3-cyclopropyl-1-oxopropan-2-yl)-5-(3-chloro-6-(difluoromethyl)-2-fluorophenyl)pyridine 1-oxide] | 7.66 |  | 1.9 | 2.9 | 89 | 9.05
C[C@]1(O)CC[C@H](CC(C(=O)Nc2ccc(C(=O)O)cc2)c2ccc(-c3c(OC(F)F)ccc(Cl)c3F)c[n+]2[O-])CC1 (single isomer, unassigned) [Example 43, 2-(1-((4-carboxyphenyl)amino)-3-((1r,4r)-4-hydroxy-4-methylcyclohexyl)-1-oxopropan-2-yl)-5-(3-chloro-6-(difluoromethoxy)-2-fluorophenyl)pyridine 1-oxide] | 7.70 | 0.55 |  |  |  | 9.35
N#CC1(CC(C(=O)Nc2ccc(C(=O)O)cc2)c2ccc(-c3c(C(F)(F)F)ccc(Cl)c3F)c[n+]2[O-])CC1 (racemic) [Example 30, 2-(1-((4-carboxyphenyl)amino)-3-(1-cyanocyclopropyl)-1-oxopropan-2-yl)-5-(3-chloro-2-fluoro-6-(trifluoromethyl)phenyl)pyridine 1-oxide] | 6.81 | 5.27 |  |  |  | 8.12
CC1CC1C[C@@H](C(=O)Nc1ccc(C(=O)O)cc1)c1ccc(-c2c(C(F)F)ccc(Cl)c2F)c[n+]1[O-] (single isomer, unassigned) [Example 62] | 8.21 | 0.35 |  |  |  | 9.68
